Source: ChEMBL document CHEMBL1126639, “Centrally acting serotonergic and dopaminergic agents. 2. Synthesis and structure-activity relationships of 2,3,3a,4,9,9a-hexahydro-1H-benz[f]indole derivatives” (J Med Chem, 1993)
pKi: −log10 of the molar value.

Key:
Mus musculus [1] = assay: Time of effect in the isolation-induced aggression behavioral assay in the mouse when a dose of 11 micro mol/kg is administered intraperitoneally (*,p<0.05); assay type: functional
Mus musculus [2] = assay: Time of effect in the isolation-induced aggression behavioral assay in the mouse when a dose of 3.5 micro mol/kg is administered intraperitoneally (*,p<0.05); assay type: functional
Mus musculus [3] = assay: Antagonism of apomorphine in reserpinized mice when a dose of 35 micro mol/kg is administered intraperitoneally; assay type: functional
Mus musculus [4] = assay: Ability to stimulate dopaminergic systems by effect on locomotor activity in reserpinized mice when a dose of 0.4 micro mol/kg is administered intraperitoneally; assay type: functional
Mus musculus [5] = assay: Time of effect in the isolation-induced aggression behavioral assay in the mouse when a dose of 1.1 micro mol/kg is administered intraperitoneally; assay type: functional
Mus musculus [6] = assay: Time of effect in the isolation-induced aggression behavioral assay in the mouse when a dose of 36 micro mol/kg is administered intraperitoneally (*,p<0.05); assay type: functional
Mus musculus [7] = assay: Maximum decrease in temperature when compound is administered through peroral route; assay type: functional
Rattus norvegicus [8] = assay: Effect on the synthesis rates of dopamine (DOPA accumulation) in the rat ventral limbic brain region at 3.5 umol/kg; assay type: functional, Limbic system
D(2) dopamine receptor [9] = biological target: D(2) dopamine receptor (Rattus norvegicus, UniProt P61169); assay: Binding affinity for [3H]raclopride-labeled dopamine receptor D2 in rat striatum; assay type: tissue-based
D(2) dopamine receptor [10] = biological target: D(2) dopamine receptor (Homo sapiens, UniProt P14416); assay: Binding affinity against [3H]U-86,170-labeled dopamine receptor D2 in cloned CHO cells; assay type: cell-based
Mus musculus [11] = assay: Time of effect in the isolation-induced aggression behavioral assay in the mouse when a dose of 0.0 micro mol/kg is administered intraperitoneally; assay type: functional
Rattus norvegicus [12] = assay: Inhibition of firing rates of serotonergic neurons in the dorsal raphe nucleus by intravenous injection in rats; assay type: functional; details: Rattus norvegicus, Dorsal raphe nucleus, iv; read-out: ED50
Mus musculus [13] = assay: Antagonism of apomorphine in reserpinized mice when a dose of 0.4 micro mol/kg is administered intraperitoneally; assay type: functional
Mus musculus [14] = assay: Ability to stimulate dopaminergic systems by effect on locomotor activity in reserpinized mice when a dose of 35 micro mol/kg is administered intraperitoneally (*,p<0.05); assay type: functional
Mus musculus [15] = assay: Ability to stimulate dopaminergic systems by effect on locomotor activity in reserpinized mice when a dose of 3.5 micro mol/kg is administered intraperitoneally (*,p<0.05); assay type: functional
Mus musculus [16] = assay: Effective dose on hypothermia in mouse when administered subcutaneously; assay type: functional; details: sc
Mus musculus [17] = assay: Time of effect in the isolation-induced aggression behavioral assay in the mouse when a dose of 0.4 micro mol/kg is administered intraperitoneally; assay type: functional
Rattus norvegicus [18] = assay: Inhibition of firing rates of dopaminergic neurons in the substantia nigra pars compacta by intravenous injection in rats; assay type: functional
Mus musculus [19] = assay: Antagonism of apomorphine in reserpinized mice when a dose of 3.5 micro mol/kg is administered intraperitoneally; assay type: functional
Rattus norvegicus [20] = assay: Effect on the synthesis rates of serotonin (5-HTP accumulation) in the rat ventral limbic brain region 3.5 umol/kg; assay type: functional, Limbic system
Mus musculus [21] = assay: Maximum decrease in temperature when compound is administered subcutaneously; assay type: functional
Mus musculus [22] = assay: Effective dose on hypothermia in mouse when administered through peroral route; assay type: functional; details: Mus musculus, po; read-out: ED50
Mus musculus [23] = assay: Time of effect in the isolation-induced aggression behavioral assay in the mouse when a dose of 9.1 micro mol/kg is administered intraperitoneally; assay type: functional
[24] = biological target: Sodium-dependent dopamine transporter (Rattus norvegicus) (UniProt P23977); assay: Inhibition of firing rates of dopaminergic neurons in the substantia nigra pars compacta by intravenous injection in rats.; assay type: functional, tissue-based
Felis catus [25] = organism: Felis catus; assay: Percent of arterial blood pressure at sympathetic nerve activity (SND) dose value was determined; assay type: functional
Mus musculus [26] = assay: Time of effect in the isolation-induced aggression behavioral assay in the mouse when a dose of 0.3 micro mol/kg is administered intraperitoneally; assay type: functional
Rattus norvegicus [27] = assay: Effect on the synthesis rates of dopamine in the rat ventral limbic brain region at 3.0 micro mol/kg; assay type: functional, Limbic system
Felis catus [28] = assay: Maximum decrease of arterial blood pressure at sympathetic nerve activity (SND) in anesthetized cat has been observed following 1 mg/kg dose; assay type: functional; design: scale not given: the % may be the effect or the level left
Mus musculus [29] = organism: Mus musculus; assay: Time of effect in the face-to-face behavioral assay in the mouse […]; assay type: functional
Felis catus [30] = assay: Effective dose at which the sympathetic nerve activity (SND) has been reduced to 50% of the pretreatment value in anesthetized cat; assay type: functional
Mus musculus [31] = assay: Time of effect in the face-to-face behavioral assay in the mouse when a dose of 3.0 micro mol/kg is administered subcutaneously; assay type: functional
Mus musculus [32] = assay: Time of effect in the isolation-induced aggression behavioral assay in the mouse when a dose of 30 micro mol/kg is administered intraperitoneally; assay type: functional
Mus musculus [33] = assay: Time of effect in the isolation-induced aggression behavioral assay in the mouse when a dose of 3.0 micro mol/kg is administered intraperitoneally; assay type: functional
Rattus norvegicus [34] = assay: Effect on the synthesis rates of serotonin in the rat ventral limbic brain region 3.0 micro mol/kg.; assay type: functional, Limbic system
Mus musculus [35] = assay: Time of effect in the isolation-induced aggression behavioral assay in the mouse when a dose of 0.9 micro mol/kg is administered intraperitoneally; assay type: functional
Rattus norvegicus [36] = assay: Effect on the synthesis rates of serotonin in the rat ventral limbic brain region 0.3 micro mol/kg.; assay type: functional, Limbic system
[37] = biological target: Sodium-dependent dopamine transporter (Rattus norvegicus) (UniProt P23977); assay: Inhibition of firing rates of serotonergic neurons in the dorsal raphe nucleus by intravenous injection in rats.; assay type: functional, tissue-based
Felis catus [38] = assay: Maximum decrease of sympathetic nerve activity (SND) in anesthetized cat has been expressed as percent control; assay type: functional; design: scale not given: the % may be the effect or the level left
Mus musculus [39] = assay: Time of effect in the face-to-face behavioral assay in the mouse when a dose of 30 micro mol/kg is administered subcutaneously; assay type: functional
Rattus norvegicus [40] = assay: Effect on the synthesis rates of dopamine in the rat ventral limbic brain region at 0.3 micro mol/kg.; assay type: functional, Limbic system
Mus musculus [41] = assay: Time of effect in the face-to-face behavioral assay in the mouse when a dose of 0.3 micro mol/kg is administered subcutaneously; assay type: functional
Mus musculus [42] = assay: Time of effect in the face-to-face behavioral assay in the mouse when a dose of 8.4 micro mol/kg is administered subcutaneously; assay type: functional
Mus musculus [43] = assay: Time of effect in the face-to-face behavioral assay in the mouse when a dose of 2.8 micro mol/kg is administered subcutaneously; assay type: functional
Mus musculus [44] = assay: Time of effect in the face-to-face behavioral assay in the mouse when a dose of 28 micro mol/kg is administered subcutaneously; assay type: functional
Mus musculus [45] = assay: Antagonism of apomorphine in reserpinized mice when a dose of 2.7 micro mol/kg is administered intraperitoneally; assay type: functional
Mus musculus [46] = assay: Antagonism of apomorphine in reserpinized mice when a dose of 0.3 micro mol/kg is administered intraperitoneally; assay type: functional
Mus musculus [47] = assay: Antagonism of apomorphine for 0-10 minutes in reserpinized mice when a dose of 0.3 micro mol/kg is administered intraperitoneally; assay type: functional
Mus musculus [48] = assay: Ability to stimulate dopaminergic systems by effect on locomotor activity in reserpinized mice when a dose of 0.3 micro mol/kg is administered intraperitoneally; assay type: functional
Mus musculus [49] = assay: Antagonism of apomorphine for 10-20 minutes in reserpinized mice when a dose of 0.3 micro mol/kg is administered intraperitoneally; assay type: functional
Mus musculus [50] = assay: Antagonism of apomorphine for 10-20 minutes in reserpinized mice when a dose of 2.7 micro mol/kg is administered intraperitoneally; assay type: functional
Mus musculus [51] = assay: Ability to stimulate dopaminergic systems by effect on locomotor activity in reserpinized mice when a dose of 2.7 micro mol/kg is administered intraperitoneally; assay type: functional
Mus musculus [52] = assay: Antagonism of apomorphine for 0-10 minutes in reserpinized mice when a dose of 2.7 micro mol/kg is administered intraperitoneally; assay type: functional
Rattus norvegicus [53] = assay: Effect on the synthesis rates of serotonin in the rat ventral limbic brain region 2.7 micro mol/kg.; assay type: functional, Limbic system
Rattus norvegicus [54] = assay: Effect on the synthesis rates of dopamine in the rat ventral limbic brain region at 2.7 micro mol/kg.; assay type: functional, Limbic system

Chain of Sodium-dependent dopamine transporter (Rattus norvegicus) (P23977 whole entry): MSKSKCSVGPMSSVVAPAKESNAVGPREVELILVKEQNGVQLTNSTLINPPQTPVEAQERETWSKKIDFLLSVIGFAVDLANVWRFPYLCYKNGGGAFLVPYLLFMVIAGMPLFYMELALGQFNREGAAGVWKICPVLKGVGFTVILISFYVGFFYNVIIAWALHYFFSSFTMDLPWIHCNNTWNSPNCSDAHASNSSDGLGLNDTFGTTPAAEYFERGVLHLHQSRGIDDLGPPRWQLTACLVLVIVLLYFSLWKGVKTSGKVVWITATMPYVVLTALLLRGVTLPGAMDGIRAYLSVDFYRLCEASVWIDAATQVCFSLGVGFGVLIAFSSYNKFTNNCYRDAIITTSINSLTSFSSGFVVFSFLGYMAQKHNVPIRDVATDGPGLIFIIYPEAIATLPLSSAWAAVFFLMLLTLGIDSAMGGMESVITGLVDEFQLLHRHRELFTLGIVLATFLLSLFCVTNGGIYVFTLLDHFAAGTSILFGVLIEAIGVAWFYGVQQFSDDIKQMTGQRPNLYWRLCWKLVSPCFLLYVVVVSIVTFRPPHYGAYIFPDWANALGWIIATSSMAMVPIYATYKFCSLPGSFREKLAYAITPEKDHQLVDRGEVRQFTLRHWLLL
Chain of D(2) dopamine receptor (Rattus norvegicus, UniProt P61169) (P61169 whole entry): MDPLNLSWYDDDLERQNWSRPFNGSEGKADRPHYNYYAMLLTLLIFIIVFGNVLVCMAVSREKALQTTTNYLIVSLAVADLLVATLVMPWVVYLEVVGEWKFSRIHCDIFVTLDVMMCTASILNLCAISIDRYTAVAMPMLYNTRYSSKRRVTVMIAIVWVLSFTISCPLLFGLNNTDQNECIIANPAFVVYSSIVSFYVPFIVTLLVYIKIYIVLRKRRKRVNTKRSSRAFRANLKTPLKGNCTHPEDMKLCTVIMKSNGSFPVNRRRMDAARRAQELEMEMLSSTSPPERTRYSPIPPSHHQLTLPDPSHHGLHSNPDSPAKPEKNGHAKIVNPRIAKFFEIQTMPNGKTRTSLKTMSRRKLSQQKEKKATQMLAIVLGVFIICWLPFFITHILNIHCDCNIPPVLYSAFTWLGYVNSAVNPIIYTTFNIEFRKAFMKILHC
Chain of D(2) dopamine receptor (Homo sapiens, UniProt P14416) (P14416 whole entry): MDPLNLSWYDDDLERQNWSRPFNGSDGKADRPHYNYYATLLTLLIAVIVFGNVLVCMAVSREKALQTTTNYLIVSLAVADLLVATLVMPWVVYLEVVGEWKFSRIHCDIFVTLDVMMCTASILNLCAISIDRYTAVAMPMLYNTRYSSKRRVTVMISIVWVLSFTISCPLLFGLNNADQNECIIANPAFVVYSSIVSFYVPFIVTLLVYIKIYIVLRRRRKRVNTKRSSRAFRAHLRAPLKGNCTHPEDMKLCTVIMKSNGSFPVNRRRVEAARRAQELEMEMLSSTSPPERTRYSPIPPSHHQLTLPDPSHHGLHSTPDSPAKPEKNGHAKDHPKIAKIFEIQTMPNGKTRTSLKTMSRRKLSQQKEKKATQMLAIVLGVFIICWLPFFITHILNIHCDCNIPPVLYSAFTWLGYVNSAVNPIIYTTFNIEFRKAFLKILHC

CCCN1CC[C@@H]2Cc3c(cccc3OC)C[C@H]21 (racemic)
Time (Mus musculus [1]): 268 s | Time (Mus musculus [2]): 384 s | Locomotor activity (Mus musculus [3]): 61 | Locomotor activity (Mus musculus [4]): 251 | Time (Mus musculus [5]): 134 s | Time (Mus musculus [6]): 450 s | Max temperature decrease (Mus musculus [7]): 1.4 | Control (Rattus norvegicus [8]): -39% | pKi (D(2) dopamine receptor [9]): 6.06 | pKi (D(2) dopamine receptor [10]): 7.00 | Time (Mus musculus [11]): 9 s | ED50 (Rattus norvegicus [12]): 0.07 µmol/kg | Locomotor activity (Mus musculus [13]): 148 | Locomotor activity (Mus musculus [14]): 561 | Locomotor activity (Mus musculus [15]): 1168 | ED50 (Mus musculus [16]; Mus musculus, read-out: ED50): 0.4 µmol/kg | Time (Mus musculus [17]): 6 s | ED50 (Rattus norvegicus [18]): 0.66 µmol/kg | Locomotor activity (Mus musculus [19]): 129 | Control (Rattus norvegicus [20]): -29% | Max temperature decrease (Mus musculus [21]): 6.7 | ED50 (Mus musculus [22]): > 355 µmol/kg

CCCN(CCC)C1CCc2cccc(O)c2C1 (stereo unspecified) [8-OH-DPAT]
Time (Mus musculus [23]): 437 s | ED50 [24]: 2.25 µmol/kg | BP (Felis catus [25]): 66% | Time (Mus musculus [26]): 11 s | Control (Rattus norvegicus [27]): 3% | Control (Felis catus [28]): 57% | Time (Mus musculus [29]): 1.1 s | ED50 (Felis catus [30]): 0.03 µmol/kg | Time (Mus musculus [31]): 5 s | Max temperature decrease (Mus musculus [7]): 7.5 | Time (Mus musculus [32]): 351 s | Time (Mus musculus [33]): 310 s | Control (Rattus norvegicus [34]): -47% | Time (Mus musculus [35]): 20 s | Control (Rattus norvegicus [36]): -37% | ED50 (Mus musculus [16]): 1 µmol/kg | ED50 [37]: 0.005 µmol/kg | Control (Felis catus [38]): 2% | Time (Mus musculus [39]): 4.4 s | Max temperature decrease (Mus musculus [21]): 7.2 | Control (Rattus norvegicus [40]): 16% | Time (Mus musculus [41]): 1.6 s | ED50 (Mus musculus [22]): 9.7 µmol/kg

CN(C)CCCN1c2ccccc2Sc2ccc(Cl)cc21.Cl [CHLORPROMAZINE HYDROCHLORIDE]
Time (Mus musculus [42]): 1.3 s | Time (Mus musculus [29]): 3.6 s | Time (Mus musculus [43]): 5.8 s | Time (Mus musculus [44]): 0 s

O=C(CCCN1CCC(O)(c2ccc(Cl)cc2)CC1)c1ccc(F)cc1 [HALOPERIDOL]
Locomotor activity (Mus musculus [45]): 10 | Locomotor activity (Mus musculus [46]): 58 | Locomotor activity (Mus musculus [47]): 94 | Locomotor activity (Mus musculus [48]): 9 | Locomotor activity (Mus musculus [49]): 71 | Locomotor activity (Mus musculus [50]): 28 | Locomotor activity (Mus musculus [51]): 1 | Locomotor activity (Mus musculus [52]): 72 | Control (Rattus norvegicus [53]): -6.6% | ED50 (Rattus norvegicus [12]): 0.019 µmol/kg | ED50 (Rattus norvegicus [18]): 0.018 µmol/kg | Control (Rattus norvegicus [54]): 144%
